From patent US20110152267A1, “Compositions and Methods for Treating Hyperproliferative Disorders” (Texas Tech University System, priority 2009, published 2011)

Key:
Format in all cases: cell-based, human
[1] = system: MDA-MB-231 breast adenocarcinoma cell line; experiment: DIMSCAN cytotoxicity, fenretinide + L-threo-sphinganines 3:1 (Example B14); conditions: MDA-MB-231, 20% O2, 96 h
Protocol: (§1) Cytotoxicity Assay—Once again, cytotoxicity is determined using the DIMSCAN assay system (R. Proffitt et al., Cytometry 24, 204-213 (1996); T. Frgala et al., Mol Cancer Ther. 6:886-97, 2007). The system employs digital imaging microscopy to quantify viable cells, which selectively accumulate fluorescein diacetate to become brightly fluorescent. The system is capable of measuring cytotoxicity over a 4-5 log dynamic range by quenching the residual fluorescence of dead and dying cells with eosin Y and quantifying the total fluorescence of viable cells using digital thresholding. Measured fluorescence is directly proportionate to the number of viable cells. A comparison of the total fluorescence of a drug-treated cell population to the fluorescence of a similar number of untreated cells yields a survival fraction. In brief, 2000 to 10,000 cells/well (depending on size and growth rates) are replicate plated into 60 wells of a 96-well tissue culture plate in 0.1 mL of whole medium and allowed to attach overnight. Drug(s) are then added in 0.05 mL of whole medium to the final concentrations indicated. Drugs (fenretinide, and various chain length L-threo-sphinganines) were tested both as single agents and in a 3:1 ratio of fenretinide:sphinganine. C18-L-threo-sphinganine, or “safingol,” was also tested and results shown for reference. There are 12 wells treated per drug concentration. Twelve wells receive drug vehicle-only to the appropriate final concentration and serve as controls for the plate. Cells are incubated for 96 hours at 37° C. in ambient air with 5% CO2. Fluorescein diacetate is then added to each well in 0.05 mL media to a final concentration of 8 microgram/mL. Cells are incubated for a further 15 minutes at 37° C. and 0.03 mL of 0.5% eosin Y is added to each well. Total fluorescence of viable cells is then measured by digital imaging microscopy. Results were graphed as the ratio of the fluoresecence of drug-treated wells to non-drug treated control wells (i.e., Survival Fraction). All tests were performed at least twice. Representative results are shown.
(§2) The Combination Index (CI) is a term to describe mathematical modeling of the pharmacologic effects on cytotoxicity (cell death) of two drugs in combination based. Cytotoxic “synergy” is defined as a cell death affect which is greater than would be expected from a simple product of the single agent cytotoxicities alone (i.e. an “additive” effect). By Chou-Talalay analysis, a CI<0.9 on a Fraction Affected (“Fa”, i.e. fraction of cells killed) indicates synergy, with smaller numbers indicating greater synergy; a CI of 0.9-1.1 signifies an additive or near-additive effect; and a CI>1.1 means the drug combination is antagonistic.
(§3) Fenretinide and L-threo-sphinganines tested in human breast adenocarcinoma (breast cancer) cell lines, MCF-7 and MDA-MB-231.

[2] = system: MCF-7 breast adenocarcinoma cell line; experiment: as above; conditions: 96 h
Protocol: as §1, §2, §3

[3] = system: COG-LL-317 Acute Lymphoblastic Leukemia (ALL) cancer cell line; experiment: DIMSCAN cytotoxicity dose-response with fenretinide (Examples A, FIGS. 5, 11, 17); conditions: 5% oxygen, at one or more doses, +96 hrs
Protocol: Cytotoxicity Assay: Cytotoxicity in cell lines was determined using a fluorescence-based assay employing digital imaging microscopy (DIMSCAN)(after Fragala, et al, Mol Cancer Ther, 6:886-897, 2007). DIMSCAN quantitates viable cells which selectively accumulate fluorescein diacetate and is capable of measuring cytotoxicity over a 4-5 log dynamic range by quantifying total fluorescence per well (which is proportional to viable, clonogenic cells) after eliminating background fluorescence using digital thresholding and eosin Y quenching. Briefly, cell lines were seeded into 96-well plates in 100 µL of complete culture medium (10-20% serum) per well. Cells were incubated overnight in 2%, 5% or 20% oxygen (room air) prior to addition of drugs in […] volumes of complete medium to various final drug concentrations in replicates of 12 wells per concentration. In assays employing D-threo-PPMP, PPMP was employed at a fixed, minimally-toxic, final concentration of 10 μM in each well. Control wells received ethanol (final concentration=0.12%-0.20%) in complete medium equivalent to the maximum final ethanol concentration of drug-treated wells. Plates were incubated at various oxygen concentrations to simulate physiological hypoxia (i.e., 2% oxygen=typical solid tumor oxygen levels; 5%=bone marrow oxygen levels for leukemias; 20% room air=supraphysiological oxygen for comparison with typical laboratory culture conditions). Plates were assayed at 3-4 days after initiating drug exposure depending on the growth properties of each cell line, to allow for maximum cell death and outgrowth of surviving cells. To measure cytotoxicity, FDA (stock solution of 1 mg/ml in DMSO) was added, in 50 µL of complete medium per well, to a final concentration of 10 µg/ml. The plates were incubated for an additional 15-30 minutes at 37 C and then 30 µL of eosin Y (0.5% in normal saline) was added per well. Total fluorescence of each well was then measured using digital imaging microscopy. […]

[4] = system: COG-LL-317 acute lymphoblastic leukemia cell line; experiment: DIMSCAN cytotoxicity, fenretinide + L-threo-sphinganines 3:1 (Example B20)
Protocol: as §1, §2
(§4) Fenretinide and L-threo-sphinganines tested in human acute lymphoblastic leukemia (pediatric ALL, a blood cancer) cell lines, COG-LL-317 and MOLT-4.

[5] = system: MOLT-4 acute lymphoblastic leukemia cell line; experiment: as above
Protocol: as §1, §2, §4

[6] = system: CHLA-266 primitive neuroectodermal tumor (PNET) cell line; experiment: DIMSCAN cytotoxicity, fenretinide + L-threo-sphinganines 3:1 (Example B9); conditions: 96 h
Protocol: as §1, §2
Fenretinide and L-threo-sphinganines tested in human primitive neuroectodermal tumor (PNET) (brain cancer) cell line, CHLA-266.

[7] = 4-HPR 1.5 μM + L-threo-sphinganine 0.5 μM
[8] = 4-HPR 3 μM + L-threo-sphinganine 1 μM
[9] = 4-HPR 6 μM + L-threo-sphinganine 2 μM
[10] = 4-HPR 9 μM + L-threo-sphinganine 3 μM
[11] = 4-HPR 12 μM + L-threo-sphinganine 4 μM

CCCCCCCCCCCCCCCCC[C@H](O)[C@@H](N)CO [C20, (2S,3S)-2-amino-1,3-icosanediol]
CI (Combination Index) [1, 7]: 2.0
Fa (fraction affected) [1, 7]: 0.011
CI (Combination Index) [1, 8]: 1.1
Fa (fraction affected) [1, 8]: 0.190
CI (Combination Index) [1, 9]: 1.3
Fa (fraction affected) [1, 9]: 0.583
CI (Combination Index) [1, 10]: 1.8
Fa (fraction affected) [1, 10]: 0.664
CI (Combination Index) [2, 7]: 0.8
Fa (fraction affected) [2, 7]: 0.287
CI (Combination Index) [2, 8]: 0.4
Fa (fraction affected) [2, 8]: 0.852
CI (Combination Index) [2, 9]: 0.3
Fa (fraction affected) [2, 9]: 0.971
CI (Combination Index) [2, 10]: 0.1
Fa (fraction affected) [2, 10]: 0.998
C.I. (Combination Index) with fenretinide [3]: < 1
CI [4, 8]: 0.2
Fa [4, 8]: 0.9999
CI [4, 9]: 0.3
Fa [4, 9]: 1
Fa [4, 10]: 1
Fa [4, 11]: 1
CI [5, 8]: 0.9
Fa [5, 8]: 0.878
CI [5, 9]: 0.8
Fa [5, 9]: 0.996
CI [5, 10]: 0.8
Fa [5, 10]: 0.999
Fa [5, 11]: 1

CCCCCCCCCCCCCCC[C@H](O)[C@@H](N)CO [C18, (2S,3S)-2-amino-1,3-octadecanediol, reference compound]
CI (Combination Index) [1, 7]: 1.8
Fa (fraction affected) [1, 7]: 0.088
CI (Combination Index) [1, 8]: 1.8
Fa (fraction affected) [1, 8]: 0.207
CI (Combination Index) [1, 9]: 1.3
Fa (fraction affected) [1, 9]: 0.597
CI (Combination Index) [1, 10]: 0.7
Fa (fraction affected) [1, 10]: 0.922
CI (Combination Index) [2, 7]: 1.2
Fa (fraction affected) [2, 7]: 0.243
CI (Combination Index) [2, 8]: 0.6
Fa (fraction affected) [2, 8]: 0.756
CI (Combination Index) [2, 9]: 0.9
Fa (fraction affected) [2, 9]: 0.824
CI (Combination Index) [2, 10]: 0.6
Fa (fraction affected) [2, 10]: 0.961
CI (Combination Index) [6, 7]: 0.5
Fa (fraction affected) [6, 7]: 0.604
CI (Combination Index) [6, 8]: 0.8
Fa (fraction affected) [6, 8]: 0.880
CI (Combination Index) [6, 9]: 1.1
Fa (fraction affected) [6, 9]: 0.984
CI (Combination Index) [6, 10]: 1.5
Fa (fraction affected) [6, 10]: 0.989
CI [4, 8]: 0.8
Fa [4, 8]: 0.998
CI [4, 9]: 0.6
Fa [4, 9]: 0.9994
CI [4, 10]: 0.8
Fa [4, 10]: 0.9996
Fa [4, 11]: 1
CI [5, 8]: 0.9
Fa [5, 8]: 0.829
CI [5, 9]: 0.7
Fa [5, 9]: 0.998
CI [5, 10]: 0.8
Fa [5, 10]: 0.999
Fa [5, 11]: 1

CCCCCCCCCCC[C@H](O)[C@@H](N)CO [C14]
CI (Combination Index) [6, 7]: 0.6
Fa (fraction affected) [6, 7]: 0.342
CI (Combination Index) [6, 8]: 0.9
Fa (fraction affected) [6, 8]: 0.739
CI (Combination Index) [6, 9]: 1.1
Fa (fraction affected) [6, 9]: 0.968
CI (Combination Index) [6, 10]: 1.6
Fa (fraction affected) [6, 10]: 0.974

CCCCCCCCC[C@H](O)[C@@H](N)CO [C12]
CI (Combination Index) [1, 7]: 1.5
Fa (fraction affected) [1, 7]: 1E−07
CI (Combination Index) [1, 8]: 0.9
Fa (fraction affected) [1, 8]: 0.052
CI (Combination Index) [1, 9]: 1.6
Fa (fraction affected) [1, 9]: 0.272
CI (Combination Index) [1, 10]: 2.0
Fa (fraction affected) [1, 10]: 0.720
CI (Combination Index) [2, 7]: 1.0
Fa (fraction affected) [2, 7]: 0.217
CI (Combination Index) [2, 8]: 1.0
Fa (fraction affected) [2, 8]: 0.642
CI (Combination Index) [2, 9]: 0.9
Fa (fraction affected) [2, 9]: 0.951
CI (Combination Index) [2, 10]: 1.2
Fa (fraction affected) [2, 10]: 0.975
CI (Combination Index) [6, 7]: 0.6
Fa (fraction affected) [6, 7]: 0.464
CI (Combination Index) [6, 8]: 0.6
Fa (fraction affected) [6, 8]: 0.788
CI (Combination Index) [6, 9]: 0.7
Fa (fraction affected) [6, 9]: 0.951
CI (Combination Index) [6, 10]: 1.0
Fa (fraction affected) [6, 10]: 0.965

CCCCCCCCCCCCCCCC[C@H](O)[C@@H](N)CO [C19, (2S,3S)-2-amino-1,3-nonadecanediol]
CI (Combination Index) [1, 7]: 1.2
Fa (fraction affected) [1, 7]: 0.078
CI (Combination Index) [1, 8]: 1.2
Fa (fraction affected) [1, 8]: 0.195
CI (Combination Index) [1, 9]: 1.1
Fa (fraction affected) [1, 9]: 0.503
CI (Combination Index) [1, 10]: 0.7
Fa (fraction affected) [1, 10]: 0.909
CI (Combination Index) [2, 7]: 1.2
Fa (fraction affected) [2, 7]: 0.138
CI (Combination Index) [2, 8]: 0.8
Fa (fraction affected) [2, 8]: 0.736
CI (Combination Index) [2, 9]: 0.8
Fa (fraction affected) [2, 9]: 0.965
CI (Combination Index) [2, 10]: 0.9
Fa (fraction affected) [2, 10]: 0.991
C.I. (Combination Index) with fenretinide [3]: < 1
CI [4, 8]: 0.8
Fa [4, 8]: 0.9980
CI [4, 9]: 0.4
Fa [4, 9]: 0.9999
Fa [4, 10]: 1.0000
Fa [4, 11]: 1.0000
CI [5, 8]: 1.0
Fa [5, 8]: 0.797
CI [5, 9]: 0.8
Fa [5, 9]: 0.996
CI [5, 10]: 0.8
Fa [5, 10]: 0.999
Fa [5, 11]: 1

CCCCCCCCCCCC[C@H](O)[C@@H](N)CO [C15]
CI (Combination Index) [6, 7]: 0.5
Fa (fraction affected) [6, 7]: 0.657
CI (Combination Index) [6, 8]: 1.0
Fa (fraction affected) [6, 8]: 0.701
CI (Combination Index) [6, 9]: 1.2
Fa (fraction affected) [6, 9]: 0.906
CI (Combination Index) [6, 10]: 0.4
Fa (fraction affected) [6, 10]: 0.999
